Laboratory results: patent US20260138976A1 (Hoffmann-La Roche Inc., priority 2022, published 2026)

Assays:
[1] = biological target: T1, DGKα (hDGKalpha(1-735)-N-His) (Homo sapiens, UniProt P23743); assay: In vitro DGK inhibition assay, DGKalpha ADP Glo (in house); assay type: biochemical; settings: 4 nM DGKα, 25 μM ATP, 125 uM DLG in liposomes, 1 hour reaction
T1 construct: hDGKalpha(1-735)-N-His; His (N); made in house; host or cells: Sf21 insect cells (baculovirus)
Description: (§1) DGKα and ζ kinases use ATP to phosphorylate the substrate 1,2-dilauroyl-sn-glycerol (DLG, incorporated in the liposomes). ATP is converted to ADP as a result of this enzymatic reaction. After the kinase reaction, an ATP-depletion reagent is added to terminate the kinase reaction and deplete any remaining ATP, leaving only ADP. Second, a detection reagent is added to simultaneously convert ADP to ATP and allow the newly synthesized ATP to be converted to light using a coupled luciferase/luciferin reaction.
(§2) Full length DGKα and ζ were expressed in Sf21 insect cells by infecting the cells with the baculovirus stock at MOI of 2. Purification of both enzymes was performed as previously described by Takahashi et al., PeerJ, 2018 (Takahashi, D.; Sakane, F. Expression and purification of human diacylglycerol 5 kinase alpha from baculovirus-infected insect cells for structural studies. PeerJ2018, 6, No. e5449).
(§3) A concentrated liposome solution was prepared in assay buffer without DTT and BSA: 2 mM of DLG in 21 mM of total liposome (2 mM DLG/8 mM PS/11 mM PC). The reaction mixtures contain the assay buffer with a final DLG concentration of 125 uM ATP concentrations of 25 μM (for DGKA assay) or 50 μM (for DGKZ assay). The reactions were started by addition of DGK α and ζ kinases at 4 nM and 2 nM final concentrations, respectively. After 1 hour reaction, the amount of ADP formed was detected with the ADP-Glo kinase assay (Promega) according to the manufacturer instructions. Compounds were added in 11-points dose response, starting at […], 1:3 dilutions, with a final DMSO concentration of 2%. The multidrop combi was used as a liquid handler and luminescence was read with 0.5 s by the envision reader (PE).

[2] = biological target: T2, DGKζ (hDGKzeta(1-928)-N-His) (Homo sapiens, UniProt Q13574); assay: In vitro DGK inhibition assay, DGKzeta ADP Glo (in house); assay type: biochemical; settings: 2 nM DGKζ, 50 μM ATP, 125 uM DLG in liposomes, 1 hour reaction
T2 construct: hDGKzeta(1-928)-N-His; His (N); made in house; host or cells: Sf21 insect cells (baculovirus)
Description: as §1, §2, §3

primary human T-cells = assay: Proliferation assay (5 days, CellTiter-Glo, CD3-stimulated T-cells); assay type: cell-based; settings: for Emax proliferation (% activation): CD3 condition, normalised to DMSO (neutral) and 20 μM reference compound A1 = 100%; for EC50: Homo sapiens, T-cell, 120 h, CD3-stimulated primary human T-cells, 5 days, CellTiter-Glo, fitted sigmoidal curve, read-out: Tcell Proliferation CD3 EC50
Description: As readouts for T-cell activation, 1L2 secretion after 24 hours and proliferation after 5 days was measured. Increases in IL2 secretion and proliferation upon compound treatment were assessed as the % of the maximum of reference compound A1. WO 2016/139181 discloses reference compound A1 as example 70. As a counter screen and to make sure that no unwanted TCR-independent activation was triggered, PBS conditions were run for all compounds.
Expanded primary human T-cells are thawed and cultured in RPMI 1640 (Gibco, #61870-010)+5% human serum (HS, Sigma, #H3667)+1 mM Sodium Pyruvate (Gibco, #11360-039)+50 μM 2-mercaptoethanol (Gibco, #31350-010) and 1× Pen-Strep (Life Technologies, #15140122) medium at density of 2 Mio/ml for 3 hours in 5% CO2, 37° C. and 95% humidity. For coating of plates, PBS++ only or PBS++ with CD3 antibody (concentration depending on donor and determined by CD3 titrations) is added 100 μl/well to Poly-D Lysine coated 96-well plates. Plates are sealed and incubated at room temperature for 3 hours on a table-top rocking platform. After incubation, plates are washed once with PBS−− and filled with 40 μl/well culture medium only. Compounds are then added (see next section) to medium only plates. After 3 hours of culturing the T-cells, cells are filtered through a cell strainer (Miltenyi Biotech, #130-041-407), counted again and concentration is adjusted to 1.25 Mio/ml.
Cells are then seeded 80 μl/well to the 40 μl/well including dispensed compounds according to plate layout. By adding cells, compounds are further diluted 1:3, and resulting in 100 k cells/120 μl/well. After 48 hours 40 μl of supernatant is collected carefully from the top while not disturbing the cells. Cells are assessed for proliferation 5 days later by measuring […] using CellTiterGlo (Promega).
Compounds were added in a 5 or 6 pt dose response with the Tecan D300e Digital Dispenser, all conditions 3 times more concentrated than the end-concentration, since cells are added afterwards (80 μl cells to 40 μl prepared medium with treatment). The DR was starting at 20 μM or 10 μM final top concentration and a dilution factor of 3.333. The positive control was the reference compound A1 that was added in a dose response as well, additionally to 3 wells of only 20 μM representing the positive stimulator control. All wells were normalized with DMSO to a final concentration of 0.6% (0.2% end-concentration).
After 5 days, for detection of ATP which is directly proportional to the number of cells present per well, the CellTiter-Glo® 2.0 Reagent is used. After visual control for toxicity or precipitations of the tested compounds, the plates are equilibrated to room temperature for 45 minutes. CellTiter-Glo® 2.0 Reagent is equilibrated to room temperature as well. After equilibration, an equal amount of CellTiter-Glo reagent is added to the cells (80 μl/well) with an electronic multichannel pipette. Plates are placed on a rocking platform for 15 minutes at room temperature. After incubation, the bottom of the plates is sealed with backing tape. Luminescence is measured with PHERAstar FSX (interval time 0.5 sec, gain 3000, focal height 15 mm) and exported as CSV file for analysis in Genedata screener.
CD3 and PBS plates were analysed separately in Genedata Screener using Roche Normalization PCT_POS_CTRL with DMSO set as Neutral Control and 20 μM of the reference compound A1 set as Stimulator Control/100%.
For CD3 conditions EC50 and Emax of the fitted sigmoidal curve were reported. If no curve could be fitted, the EC50 was reported as blank field and the Emax was based on individual data points. […] Compounds which activate unstimulated cells (see IL2 measurements) or compounds which negatively affected viability were flagged.

T1 sequence (P23743 whole entry): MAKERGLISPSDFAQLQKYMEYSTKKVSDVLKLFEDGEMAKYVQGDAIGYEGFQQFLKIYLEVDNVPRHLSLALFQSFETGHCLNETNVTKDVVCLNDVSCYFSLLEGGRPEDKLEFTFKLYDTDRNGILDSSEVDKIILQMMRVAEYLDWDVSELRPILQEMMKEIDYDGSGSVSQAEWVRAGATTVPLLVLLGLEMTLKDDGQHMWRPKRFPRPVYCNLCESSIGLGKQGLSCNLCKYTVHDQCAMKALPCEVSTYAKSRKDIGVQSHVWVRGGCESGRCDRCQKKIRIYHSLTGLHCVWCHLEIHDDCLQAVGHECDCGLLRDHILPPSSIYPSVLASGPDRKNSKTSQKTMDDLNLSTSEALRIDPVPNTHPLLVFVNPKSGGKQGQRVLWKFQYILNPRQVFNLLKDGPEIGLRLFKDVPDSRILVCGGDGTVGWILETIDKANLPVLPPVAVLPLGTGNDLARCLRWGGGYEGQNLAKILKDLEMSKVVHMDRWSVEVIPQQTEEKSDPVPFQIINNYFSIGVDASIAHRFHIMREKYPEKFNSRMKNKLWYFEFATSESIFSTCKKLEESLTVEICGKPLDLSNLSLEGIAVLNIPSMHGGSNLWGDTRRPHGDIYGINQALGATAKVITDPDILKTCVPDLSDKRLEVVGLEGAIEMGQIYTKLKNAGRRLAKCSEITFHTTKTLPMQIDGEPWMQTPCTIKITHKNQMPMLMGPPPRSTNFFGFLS
T2 sequence (Q13574 whole entry): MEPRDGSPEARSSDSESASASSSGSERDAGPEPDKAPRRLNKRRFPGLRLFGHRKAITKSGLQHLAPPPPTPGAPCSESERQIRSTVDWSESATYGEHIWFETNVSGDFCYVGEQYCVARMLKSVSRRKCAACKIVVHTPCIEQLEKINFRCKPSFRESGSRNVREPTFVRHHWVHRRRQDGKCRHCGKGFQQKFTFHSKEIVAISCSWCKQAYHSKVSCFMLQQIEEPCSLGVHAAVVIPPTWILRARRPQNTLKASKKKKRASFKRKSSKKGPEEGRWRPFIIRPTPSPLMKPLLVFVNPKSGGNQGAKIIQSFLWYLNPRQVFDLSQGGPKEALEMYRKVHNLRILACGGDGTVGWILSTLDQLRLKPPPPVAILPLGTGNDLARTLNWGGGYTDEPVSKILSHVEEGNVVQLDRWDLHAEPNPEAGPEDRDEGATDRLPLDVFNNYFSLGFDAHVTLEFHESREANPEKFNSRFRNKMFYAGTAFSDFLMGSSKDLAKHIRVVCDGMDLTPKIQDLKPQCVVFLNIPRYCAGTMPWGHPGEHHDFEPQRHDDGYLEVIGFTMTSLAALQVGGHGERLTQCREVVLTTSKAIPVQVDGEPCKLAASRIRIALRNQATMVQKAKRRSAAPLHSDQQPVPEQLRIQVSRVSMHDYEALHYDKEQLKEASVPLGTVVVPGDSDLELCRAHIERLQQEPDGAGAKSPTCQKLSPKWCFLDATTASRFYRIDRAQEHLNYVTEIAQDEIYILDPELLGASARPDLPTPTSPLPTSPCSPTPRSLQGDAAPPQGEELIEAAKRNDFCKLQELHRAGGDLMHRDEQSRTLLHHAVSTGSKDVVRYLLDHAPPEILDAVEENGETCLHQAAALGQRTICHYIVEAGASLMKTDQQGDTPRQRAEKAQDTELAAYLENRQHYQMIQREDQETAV

Question: `COC(F)(c1nnc(-c2ccc3c(c2)N(Cc2ccc(-c4ncn(C5CC5)n4)cc2)C(=O)[C@@H](N)CS3(=O)=O)o1)C(F)(F)F` (stereo partly drawn) [Example 66, (3R)-3-amino-5-[[4-(1-cyclopropyl-1,2,4-triazol-3-yl)phenyl]methyl]-1,1-dioxo-7-[5-(1,2,2,2-tetrafluoro-1-methoxy-ethyl)-1,3,4-oxadiazol-2-yl]-2,3-dihydro-1λ^6,5-benzothiazepin-4-one] was tested. Which IC50 [1] did it give?
Answer: 14900 nM

Question: And the IC50 [2]?
Answer: 6610 nM

Question: What about the “Emax proliferation (% activation)” value (primary human T-cells) of the same compound?
Answer: 112 % activation

Question: What about the EC50 (primary human T-cells) of the same compound?
Answer: 1290 nM

Question: With `CC(C)(C#N)c1nnc(-c2ccc3c(c2)N(Cc2ccc(-c4ccc(OCC(F)(F)F)cn4)cc2)C(=O)[C@@H](N)CS3(=O)=O)o1` [Example 135, 2-[5-[(3R)-3-amino-1,1,4-trioxo-5-[[4-[5-(2,2,2-trifluoroethoxy)-2-pyridyl]phenyl]methyl]-2,3-dihydro-1λ^6,5-benzothiazepin-7-yl]-1,3,4-oxadiazol-2-yl]-2-methyl-propanenitrile] as the compound, how does the IC50 [1] read?
Answer: 1730 nM

Question: What about the IC50 [2] of the same compound?
Answer: 786 nM

Question: And the “Emax proliferation (% activation)” value (primary human T-cells)?
Answer: 149 % activation

Question: And the EC50 (primary human T-cells)?
Answer: 257 nM

Question: How did the IC50 [1] turn out when `CC(C)(C#N)c1nnc(-c2ccc3c(c2)N(Cc2ccc(-c4ccc(OC(F)(F)F)nc4)cc2)C(=O)[C@@H](N)CS3(=O)=O)o1` [Example 137, 2-[5-[(3R)-3-amino-1,1,4-trioxo-5-[[4-[6-(trifluoromethoxy)-3-pyridyl]phenyl]methyl]-2,3-dihydro-1λ^6,5-benzothiazepin-7-yl]-1,3,4-oxadiazol-2-yl]-2-methyl-propanenitrile] was run?
Answer: 11200 nM

Question: What about the IC50 [2] of the same compound?
Answer: 660 nM

Question: And the “Emax proliferation (% activation)” value (primary human T-cells)?
Answer: 124 % activation

Question: And the EC50 (primary human T-cells)?
Answer: 406 nM

Question: With `CC(C)(C#N)c1nnc(-c2ccc3c(c2)N(Cc2ccc(-n4cc(OC(F)(F)F)cn4)cc2)C(=O)[C@@H](N)CS3(=O)=O)o1` [Example 138, 2-[5-[(3R)-3-amino-1,1,4-trioxo-5-[[4-[4-(trifluoromethoxy)pyrazol-1-yl]phenyl]methyl]-2,3-dihydro-1λ^6,5-benzothiazepin-7-yl]-1,3,4-oxadiazol-2-yl]-2-methyl-propanenitrile] as the compound, how does the IC50 [1] read?
Answer: 657 nM

Question: What about the IC50 [2] of the same compound?
Answer: 465 nM

Question: And the “Emax proliferation (% activation)” value (primary human T-cells)?
Answer: 158 % activation

Question: What about the EC50 (primary human T-cells) of the same compound?
Answer: 83.2 nM

Question: With `Cc1cc(-c2ccc(CN3C(=O)[C@@H](N)CS(=O)(=O)c4ccc(-c5nnc(C(C)(C)C#N)o5)cc43)cc2)ncc1OC(F)(F)F` [Example 144, 2-[5-[(3R)-3-amino-5-[[4-[4-methyl-5-(trifluoromethoxy)-2-pyridyl]phenyl]methyl]-1,1,4-trioxo-2,3-dihydro-1λ^6,5-benzothiazepin-7-yl]-1,3,4-oxadiazol-2-yl]-2-methyl-propanenitrile] as the compound, how does the IC50 [1] read?
Answer: 15500 nM

Question: And the IC50 [2]?
Answer: 860 nM

Question: What about the “Emax proliferation (% activation)” value (primary human T-cells) of the same compound?
Answer: 87 % activation

Question: What about the EC50 (primary human T-cells) of the same compound?
Answer: 291 nM

Question: `CC(C)(C#N)c1nnc(-c2ccc3c(c2)N(Cc2ccc(-n4cc(C(F)(F)F)nn4)cc2)C(=O)[C@@H](N)CS3(=O)=O)o1` [Example 145, 2-[5-[(3R)-3-amino-1,1,4-trioxo-5-[[4-[4-(trifluoromethyl)triazo1-1-yl]phenyl]methyl]-2,3-dihydro-1λ^6,5-benzothiazepin-7-yl]-1,3,4-oxadiazol-2-yl]-2-methyl-propanenitrile] was tested. Which IC50 [1] did it give?
Answer: 18000 nM

Question: And the IC50 [2]?
Answer: 955 nM

Question: What about the “Emax proliferation (% activation)” value (primary human T-cells) of the same compound?
Answer: 86 % activation

Question: And the EC50 (primary human T-cells)?
Answer: 4260 nM

Question: `Cn1nc(OC(F)(F)F)cc1-c1ccc(CN2C(=O)[C@@H](N)CS(=O)(=O)c3ccc(-c4nnc(C(C)(C)C#N)o4)cc32)cc1` [Example 148, 2-[5-[(3R)-3-amino-5-[[4-[2-methyl-5-(trifluoromethoxy)pyrazol-3-yl]phenyl]methyl]-1,1,4-trioxo-2,3-dihydro-1λ^6,5-benzothiazepin-7-yl]-1,3,4-oxadiazol-2-yl]-2-methyl-propanenitrile] was tested. Which IC50 [1] did it give?
Answer: 737 nM

Question: What about the IC50 [2] of the same compound?
Answer: 1050 nM

Question: And the “Emax proliferation (% activation)” value (primary human T-cells)?
Answer: 186 % activation

Question: And the EC50 (primary human T-cells)?
Answer: 182 nM

Question: For `N#CC1(c2nnc(-c3ccc4c(c3)N(Cc3ccc(-c5ccc(OC(F)(F)F)cn5)cc3)C(=O)[C@@H](N)CS4(=O)=O)o2)CCOCC1` [Example 173, 4-[5-[(3R)-3-amino-1,1,4-trioxo-5-[[4-[5-(trifluoromethoxy)-2-pyridyl]phenyl]methyl]-2,3-dihydro-1λ^6,5-benzothiazepin-7-yl]-1,3,4-oxadiazol-2-yl]tetrahydropyran-4-carbonitrile], which IC50 [1] is on record?
Answer: 2060 nM

Question: And the IC50 [2]?
Answer: 416 nM

Question: And the “Emax proliferation (% activation)” value (primary human T-cells)?
Answer: 101 % activation

Question: And the EC50 (primary human T-cells)?
Answer: 235 nM

Question: Which results are given for `CC(C)(C#N)Cc1nnc(-c2ccc3c(c2)N(Cc2ccc(-c4ccc(OC(F)(F)F)cn4)cc2)C(=O)[C@@H](N)CS3(=O)=O)o1` [Example 174, 3-[5-[(3R)-3-amino-1,1,4-trioxo-5-[[4-[5-(trifluoromethoxy)-2-pyridyl]phenyl]methyl]-2,3-dihydro-1λ^6,5-benzothiazepin-7-yl]-1,3,4-oxadiazol-2-yl]-2,2-dimethyl-propanenitrile]?
Answer: IC50 [1]: 9300 nM; IC50 [2]: 1140 nM; Emax proliferation (% activation) (primary human T-cells): 124 % activation; EC50 (primary human T-cells): 543 nM

Question: What does the source list for `CCC(C#N)(CC)c1nnc(-c2ccc3c(c2)N(Cc2ccc(-c4ccc(OC(F)(F)F)cn4)cc2)C(=O)[C@@H](N)CS3(=O)=O)o1` [Example 176, 2-[5-[(3R)-3-amino-1,1,4-trioxo-5-[[4-[5-(trifluoromethoxy)-2-pyridyl]phenyl]methyl]-2,3-dihydro-1λ^6,5-benzothiazepin-7-yl]-1,3,4-oxadiazol-2-yl]-2-ethyl-butanenitrile]?
Answer: IC50 [1]: 1530 nM; IC50 [2]: 1550 nM; Emax proliferation (% activation) (primary human T-cells): 140 % activation; EC50 (primary human T-cells): 85.7 nM

Question: With `N[C@H]1CS(=O)(=O)c2ccc(-c3nnc(C4(N)CCC(F)(F)CC4)o3)cc2N(Cc2ccc(-c3ccc(OC(F)(F)F)cn3)cc2)C1=O` [Example 178, (3R)-3-amino-7-[5-(1-amino-4,4-difluoro-cyclohexyl)-1,3,4-oxadiazol-2-yl]-1,1-dioxo-5-[[4-[5-(trifluoromethoxy)-2-pyridyl]phenyl]methyl]-2,3-dihydro-1λ^6,5-benzothiazepin-4-one] as the compound, how does the IC50 [1] read?
Answer: 7100 nM

Question: What about the IC50 [2] of the same compound?
Answer: 1690 nM

Question: What about the “Emax proliferation (% activation)” value (primary human T-cells) of the same compound?
Answer: 96 % activation

Question: What about the EC50 (primary human T-cells) of the same compound?
Answer: 133 nM
